Data as given in ChEMBL document CHEMBL1159154, “Synthesis of new potent leukotriene B4 antagonists and their biological properties. 2” (Bioorg Med Chem Lett, 1994).
Calls of active or inactive are those of the source. The rule behind the calls is not given here.

How the values were obtained:
Cavia porcellus [1] = experiment: In vivo inhibitory activity against LTB4-induced bronchoconstriction of guinea pig at dose of 5 mg/kg after 2 min of iv administration; Active; type: functional, organism-based; parameters: dose 5 mg/kg
Homo sapiens = species: Homo sapiens; experiment: Concentration required for inhibitory activity against human PMNLs chemotaxis; type: functional, organism-based; conditions: PMNL
Cavia porcellus [2] = experiment: In vivo inhibitory activity against LTB4-induced bronchoconstriction of guinea pig at dose of 5 mg/kg after 10 min of iv administration; relatively active; type: functional, organism-based; parameters: dose 5 mg/kg
[3] = Partition coefficient in n-octanol/phosphate buffer, at pH 7.4; type: physicochemical
Cavia porcellus [4] = experiment: In vivo inhibitory activity against LTB4-induced bronchoconstriction of guinea pig at dose of 5 mg/kg after 10 min of iv administration; Active; type: functional, organism-based; parameters: dose 5 mg/kg
Cavia porcellus [5] = experiment: In vivo inhibitory activity against LTB4-induced bronchoconstriction of guinea pig at dose of 5 mg/kg after 30 min of iv administration; Active; type: functional, organism-based; parameters: dose 5 mg/kg
Cavia porcellus [6] = experiment: In vivo inhibitory activity against LTB4-induced bronchoconstriction of guinea pig at dose of 40 mg/kg after 60 min of po administration; Active; type: functional, organism-based; parameters: dose 40 mg/kg
Cavia porcellus [7] = experiment: In vivo inhibitory activity against LTB4-induced bronchoconstriction of guinea pig at dose of 5 mg/kg after 2 min of iv administration; relatively active; type: functional, organism-based; parameters: dose 5 mg/kg
Cavia porcellus [8] = experiment: In vivo inhibitory activity against LTB4-induced bronchoconstriction of guinea pig at dose of 40 mg/kg after 60 min of po administration; relatively active; type: functional, organism-based; parameters: dose 40 mg/kg

IC50 (Homo sapiens)	logD [3]	SMILES	Activity (Cavia porcellus [1])	further results
300 nM	0.1	CCc1cc(C(C)=O)c(O)cc1OCc1cccc(C(=O)N(CC)CCC(=O)O)n1	Active	Activity (Cavia porcellus [4]): Active; Activity (Cavia porcellus [5]): Active; Activity (Cavia porcellus [6]): Active
1000 nM	0.7	CCc1cc(C(C)=O)c(O)cc1OCc1cccc(C(=O)NCCC(=O)O)n1	Active	Activity (Cavia porcellus [4]): Active
12000 nM		CCc1cc(C(C)=O)c(O)cc1OCc1cccc(C(=O)NCC(=O)O)n1		
300 nM	-0.3	CCc1cc(C(C)=O)c(O)cc1OCc1cccc(C(=O)N[C@@H](CO)C(=O)O)n1	Active	Activity (Cavia porcellus [4]): Active; Activity (Cavia porcellus [5]): Active; Activity (Cavia porcellus [8]): Weak activity
1000 nM	2.8	CCc1cc(C(C)=O)c(O)cc1OCc1cccc(C(=O)N(CC)CCO)n1	Active	
15000 nM		CCc1cc(C(C)=O)c(O)cc1OCc1cccc(C(=O)NCCO)n1		

The remaining lines, values behind:

SMILES	IC50 (Homo sapiens)	logD [3]	Activity (Cavia porcellus [1])	further results
CCc1cc(C(C)=O)c(O)cc1OCc1cncc(C(=O)Nc2nc(CC(=O)O)cs2)n1	10000 nM	0.6	Active	Activity (Cavia porcellus [2]): Weak activity
CCc1cc(C(C)=O)c(O)cc1OCc1cccc(C(=O)Nc2cccc(CC(=O)O)n2)n1	800 nM	1.1		
CCc1cc(C(C)=O)c(O)cc1OCc1cccc(C(=O)Nc2cccc(CC(=O)O)[n+]2[O-])n1	20 nM	0.8	Active	Activity (Cavia porcellus [4]): Active; Activity (Cavia porcellus [5]): Active
CCc1cc(C(C)=O)c(O)cc1OCc1cccc(C(=O)Nc2nc(CC(=O)O)cs2)c1	5000 nM			
CCc1cc(C(C)=O)c(O)cc1OCc1cccc(C(=O)N[C@@H](CC(=O)O)C(=O)O)n1	900 nM	-1.8		Activity (Cavia porcellus [2]): Weak activity; Activity (Cavia porcellus [7]): Weak activity
CCc1cc(C(C)=O)c(O)cc1OCc1cccc(C(=O)Nc2nc(CC(=O)O)cs2)n1	300 nM	1.9		Activity (Cavia porcellus [2]): Weak activity
CCc1cc(C(C)=O)c(O)cc1OCc1ccc(C(=O)Nc2nc(CC(=O)O)cs2)cn1	700 nM			
CCCc1c(OCCCOc2ccc(C(C)=O)c(OC)c2CCC)ccc2c1OC(C(=O)O)CC2 (stereo not drawn) [SC-41390]	3300 nM			
CCc1cc(C(C)=O)c(O)cc1OCc1nccc(C(=O)Nc2nc(CC(=O)O)cs2)n1	3000 nM			
